Measurements: patent US7368432B2 (Xenome, Ltd., priority 1999, dated 2008)

What was measured:
[1] = in vivo
mice [2] = conditions: mouse, in vivo
mice [3] = conditions: mouse, in vivo; remark: listed apart in the source
CF-1 mice = conditions: in vivo

Which results are given for NGVCCGYKLCHOC [Mar1]?
activity in formalin test (licking time) [1]: active; activity in tail-flick model (mice [2]): active; effective dose range (mice [2]): low nanomole range; response latency in the tail flick model (mice [2]): reduced the response latency; symptoms after high-dose i.c.v. administration (mice [3]): akinesia and seizures; symptoms after i.c.v. injection of HPLC fractions (mice [3]): hypokinetic “sluggish” symptoms; analgesic activity in mouse hot plate assay (CF-1 mice): potent analgesics; increase in the latency to first hind paw lick (CF-1 mice; mouse): dose-dependent; latency to first hind paw lick (CF-1 mice; mouse): 39.5 ± 13.5 s; latency to lick the hind paw (CF-1 mice; mouse): significantly increased
